Key:
[1] = CSF levels after i.p. dosing in CD-1 mice; conditions: zolmitriptan 3 and 10 mg/kg i.p., male CD-1 mice
[2] = CSF levels after i.p. dosing in c57/Bl6 mice; format: in vivo, mouse
[3] = test system: CD-1 mice; experiment: Resident-Intruder (RI) assay of aggression; format: in vivo, mouse; conditions: 10 mg/kg
Experimental: Correspondingly, the RI assay has been used preclinically to study the effect of drugs on rodent aggression (Miczek et al., 2001). The RI assay typically relies on the interpretation and scoring of offensive (resident animal) behavior patterns and may also include analysis of defensive (intruder animal) behavior patterns as well. […] Attack time was measured over a 5 min period as a cross over design.

[4] = target: T1, rat recombinant 5-HT1b (r5-HT1b) receptors (Rattus norvegicus, UniProt P28564); experiment: SPA-based 35S-GTPγS binding assay (functional); format: biochemical
T1 construct: expressed in transfected cells
Experimental: In this study in vitro binding assays were conducted to measure the affinity of zolmitriptan and its active metabolite NDMZ to rat and human 5-HT1B receptors.
Zolmitriptan was tested in a SPA-based 35S-GTPγS binding assay in cells expressing human 5-HT1b (h5-HT1b) receptors or rat recombinant 5-HT1b (r5-HT1b) receptors at ten concentrations in duplicate.

[5] = target: 5-HT1b receptor (Homo sapiens, UniProt P28222); experiment: 5-HT1b receptor occupancy and efficacy model, human dose estimate
Experimental: Specifically, 5-HT1b receptor occupancy and efficacy models measured potency of zolmitriptan and NMDZ at the 5-HT1b receptor and the ratio of zolmitriptan: NDMZ in human CSF. The 5-HT1b receptor efficacy model was used to predict the level of 5-HT1b activation (i.e., efficacy) by both zolmitriptan and NDMZ based on the concentration of zolmitriptan in the CSF. From this target zolmitriptan dose ranges required to achieve an effective CSF exposures in humans were calculated.
Using classical receptor theory, the receptor occupancy when considering two ligands (i.e., entities) can be predicted using the following relationship:
Total % occupancy=(% occupancy by A)+{[100%−(% occupancy by A)]×(% occupancy by B)} when considering a fixed concentration of both A and B.
Total % Efficacy={[Zolmitriptan]/([Zolmitriptan]+Ki,Z)}+(100−{[Zolmitriptan]/([Zolmitriptan]+Ki,Z)}×{[NDMZ]/([NDMZ]+Ki,N)}

Sequence of 5-HT1b receptor (P28222 whole entry): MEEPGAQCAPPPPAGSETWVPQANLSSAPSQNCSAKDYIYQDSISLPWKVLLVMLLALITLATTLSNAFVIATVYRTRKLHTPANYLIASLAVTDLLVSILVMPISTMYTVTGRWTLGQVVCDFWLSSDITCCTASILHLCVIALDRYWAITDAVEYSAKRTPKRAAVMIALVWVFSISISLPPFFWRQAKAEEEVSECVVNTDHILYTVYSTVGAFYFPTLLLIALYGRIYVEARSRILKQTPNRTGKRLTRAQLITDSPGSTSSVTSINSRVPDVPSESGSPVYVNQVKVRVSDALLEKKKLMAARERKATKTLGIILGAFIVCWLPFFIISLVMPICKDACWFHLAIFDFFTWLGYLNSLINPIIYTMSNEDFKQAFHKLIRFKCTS
T1 sequence (P28564 whole entry): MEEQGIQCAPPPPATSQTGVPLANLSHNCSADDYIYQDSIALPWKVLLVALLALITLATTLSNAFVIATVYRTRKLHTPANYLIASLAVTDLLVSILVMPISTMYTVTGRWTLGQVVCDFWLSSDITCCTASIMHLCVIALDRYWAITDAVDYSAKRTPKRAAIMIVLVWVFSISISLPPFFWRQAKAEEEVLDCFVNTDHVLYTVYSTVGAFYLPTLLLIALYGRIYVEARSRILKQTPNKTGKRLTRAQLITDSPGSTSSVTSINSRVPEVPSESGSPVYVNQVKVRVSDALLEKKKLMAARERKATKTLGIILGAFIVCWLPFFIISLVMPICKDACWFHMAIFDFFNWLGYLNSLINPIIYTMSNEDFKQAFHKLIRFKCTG

activity in GTPgS at CSF Cmax (EC36) ([4]; CSF Cmax 18.8 nM, CD-1 mice, 3 mg/Kg i.p.)	activity in GTPgS at CSF Cmax (EC65) ([4]; CSF Cmax 62 nM, c57/Bl6 mice, 10 mg/Kg i.p.)	CSF Cmax ([2]; 10 mg/Kg i.p., c57/Bl6 ASD mouse model)	CSF levels required for a therapeutic effect in humans, lower than in mice ([5]; based on human vs rat 5-HT1b EC50)	concentration for 50% Total Efficacy relative to the zolmitriptan EC50 ([5]; combined effect of the metabolite)	EC50 ([5]; read-out: concentration of zolmitriptan in human CSF predicted to induce 50% efficacy (EC50) of 5-HT1b by zolmitriptan and NDMZ, model, zolmitriptan: NDMZ 1.0:0.75)	Compound	metabolite level after zolmitriptan dosing [1]	metabolite level in CSF after zolmitriptan dosing ([2]; zolmitriptan 10 mg/kg i.p., male c57/Bl6 mice)	reduction in attack time compared to risperidone (0.03 mg/kg) and vehicle control [3]
–	–	–	–	–	–	CNCCc1c[nH]c2ccc(C[C@H]3COC(=O)N3)cc12 [NDMZ, N-desmethyl zolmitriptan]	below the lower limit of quantification	below the lower limit of quantification	–
36%	65%	62 nM	about 8.3 fold	3.7 fold	1.09 nM	CN(C)CCc1c[nH]c2ccc(C[C@H]3COC(=O)N3)cc12 [Zolmitriptan, (4S)-4-[[3-[2-(dimethylamino)ethyl]-1H-indol-5-yl]methyl]-1,3-oxazolidin-2-one]	–	–	greater reduction in attack time
